According to publication PMC10052652 (Molecules, 2023):
Read-outs that look alike come from different tables or passages of the source.

Tests used:
[1] = ABTS radical cation scavenging assay; details: for ABTS Assay %: at 100 µM
Method: ABTS (2,2′-azinobis-3-ethylbenzothiazoline-6-sulfonate) assay
The radical scavenging capacity of antioxidants for the ABTS radical cation was evaluated following this method: ABTS was prepared by adding 7 mM solution of ABTS at pH 7.4 (5 mM NaH2PO4, 5 mM Na2HPO4, and 154 mM NaCl) with 2.5 mM potassium persulfate. The mixture was stored at room temperature for 16 h in the dark before use and prepared […]. Once diluted with persulfate buffer, the absorbance of the mixture yielded an absorbance value of 0.70 ± 0.05 units at 734 nm. Then, 20 µL of each tested sample was mixed with fresh ABTS solution (180 µL), then the absorbance was measured 6 min after the initial mixing. Ascorbic acid was used as a standard. The capacity of free radical scavenging was expressed as a percentage of the inhibition values. The percentage of inhibition is calculated using the same expression employed in the DPPH assay.

15-lipoxygenase = biological target: T1, 15-lipoxygenase (Glycine max, UniProt P08170); test: Anti-inflammatory activity (anti 15-lipoxygenase); assay type: biochemical; details: at 100 µM
T1 sequence (P08170 1-839): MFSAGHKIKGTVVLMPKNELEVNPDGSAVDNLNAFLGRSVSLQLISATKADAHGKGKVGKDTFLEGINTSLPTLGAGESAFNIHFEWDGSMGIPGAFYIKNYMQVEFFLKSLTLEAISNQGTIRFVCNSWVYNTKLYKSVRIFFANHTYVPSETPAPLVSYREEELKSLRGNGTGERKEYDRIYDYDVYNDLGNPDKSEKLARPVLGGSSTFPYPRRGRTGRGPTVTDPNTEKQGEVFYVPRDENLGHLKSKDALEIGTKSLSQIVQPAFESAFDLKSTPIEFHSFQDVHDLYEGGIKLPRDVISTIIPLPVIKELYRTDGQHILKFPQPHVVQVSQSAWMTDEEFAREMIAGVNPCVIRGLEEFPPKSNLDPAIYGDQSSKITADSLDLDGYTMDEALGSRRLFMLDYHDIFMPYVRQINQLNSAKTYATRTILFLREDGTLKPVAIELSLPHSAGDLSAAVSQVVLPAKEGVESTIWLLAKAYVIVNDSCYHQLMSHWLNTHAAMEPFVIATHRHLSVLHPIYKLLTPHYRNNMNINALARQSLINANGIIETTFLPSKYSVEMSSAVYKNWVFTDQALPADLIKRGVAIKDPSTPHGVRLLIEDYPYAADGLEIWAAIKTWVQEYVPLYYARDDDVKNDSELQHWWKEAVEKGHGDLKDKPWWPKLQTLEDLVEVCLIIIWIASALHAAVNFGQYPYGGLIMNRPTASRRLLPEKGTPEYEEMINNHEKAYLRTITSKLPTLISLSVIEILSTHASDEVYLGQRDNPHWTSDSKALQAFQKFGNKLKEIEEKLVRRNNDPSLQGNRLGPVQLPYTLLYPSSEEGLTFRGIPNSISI

IGROV-1 cells = test: Cytotoxic activity, MTT assay, IGROV-1; details: for Cytotoxic activity against IGROV-1 (in words): at 100 µM; for IC50: Homo sapiens, IGROV-1, read-out: IC50 IGROV-1
Method: The cancer cell lines used in this study were HCT116 (colorectal carcinoma), IGROV1 (ovarian cancer), OVCAR3 (ovarian cancer), and MCF7 (mammary gland/breast cancer). […] Cell lines were maintained in culture and were incubated at 37 °C in an incubator with 5% CO2 in a humidified atmosphere. All tests were established at 80% of confluence, and viability was estimated with a trypan blue exclusion assay.
The cytotoxic activities of molecules against cancer cell lines were evaluated using an MTT assay. The MTT colorimetric assay was performed using 96-well plates. Cells were seeded in a 96-well plate, at a concentration of 10 × 10^3 cells/well for HCT116 and 12 × 10^3 cells/well for MCF7, IGROV1, and OVAR. Adherent cells were dispatched and incubated at 37 °C overnight in a 5% CO2-enriched atmosphere. Cells in the exponential growth phase were incubated at 37 °C for 72 h, with each tested sample at 50 µg/mL. After that, the medium was removed, and cells were treated with 50 µL of 3-(4,5-dimethylthazolk-2-yl)-2,5-diphenyl tetrazolium bromide (MTT) solution (3 mg/mL in PBS) at 37 °C for 20 to 40 min. To dissolve the […], we added 80 µL of 100% DMSO. Optical density was measured at 540 nm. All tests were established in triplicate. The anti-cancer effect of samples was estimated in terms of growth inhibition percentage.

xanthine oxidase (XOD) [2] = biological target: T2, xanthine oxidase (XOD) (Homo sapiens, UniProt P47989); test: biochemical
Method: Anti-xanthine oxidase activity was assayed spectrophotometrically under aerobic conditions. First, 50 µL (50 µg/mL) of samples were added to 60 µL of phosphate buffer (pH 7.5) and 30 µL of xanthine oxidase enzyme solution (0.01 units/mL in phosphate buffer; pH 7.5). After pre-incubation at 25 °C for 15 min, the reaction was initiated by the addition of 60 µL of xanthine substrate solution (prepared in the same buffer). The assay mixture was incubated at 25 °C for 5 min. […] The assay was performed in triplicate. […] Tests were carried out in triplicate.

[3] = cited from earlier work
[4] = design: method as in PMID 26504472; details: tested at 147.78 µM ref 17; cited from earlier work
[5] = test system: porcine pancreas α-amylase; design: method as in doi:10.15436/2377-0619.15.042; details: at 1 mM, different protocols (chromogenic substrate p-nitrophenyl-α-D-maltopentaoside) ref 18; cited from earlier work
12-lipoxygenase = biological target: 12-lipoxygenase; design: method as in PMID 11447334; details: previous report ref 22; cited from earlier work
Aβ1-40-induced dementia = test system: Aβ1-40-induced dementia; design: method as in PMID 25274114; details: rats ref 20; cited from earlier work
xanthine oxidase (XOD) [6] = biological target: T2, xanthine oxidase (XOD); assay type: biochemical; details: at 100 µM

T2 sequence (P47989 whole entry, species assumed): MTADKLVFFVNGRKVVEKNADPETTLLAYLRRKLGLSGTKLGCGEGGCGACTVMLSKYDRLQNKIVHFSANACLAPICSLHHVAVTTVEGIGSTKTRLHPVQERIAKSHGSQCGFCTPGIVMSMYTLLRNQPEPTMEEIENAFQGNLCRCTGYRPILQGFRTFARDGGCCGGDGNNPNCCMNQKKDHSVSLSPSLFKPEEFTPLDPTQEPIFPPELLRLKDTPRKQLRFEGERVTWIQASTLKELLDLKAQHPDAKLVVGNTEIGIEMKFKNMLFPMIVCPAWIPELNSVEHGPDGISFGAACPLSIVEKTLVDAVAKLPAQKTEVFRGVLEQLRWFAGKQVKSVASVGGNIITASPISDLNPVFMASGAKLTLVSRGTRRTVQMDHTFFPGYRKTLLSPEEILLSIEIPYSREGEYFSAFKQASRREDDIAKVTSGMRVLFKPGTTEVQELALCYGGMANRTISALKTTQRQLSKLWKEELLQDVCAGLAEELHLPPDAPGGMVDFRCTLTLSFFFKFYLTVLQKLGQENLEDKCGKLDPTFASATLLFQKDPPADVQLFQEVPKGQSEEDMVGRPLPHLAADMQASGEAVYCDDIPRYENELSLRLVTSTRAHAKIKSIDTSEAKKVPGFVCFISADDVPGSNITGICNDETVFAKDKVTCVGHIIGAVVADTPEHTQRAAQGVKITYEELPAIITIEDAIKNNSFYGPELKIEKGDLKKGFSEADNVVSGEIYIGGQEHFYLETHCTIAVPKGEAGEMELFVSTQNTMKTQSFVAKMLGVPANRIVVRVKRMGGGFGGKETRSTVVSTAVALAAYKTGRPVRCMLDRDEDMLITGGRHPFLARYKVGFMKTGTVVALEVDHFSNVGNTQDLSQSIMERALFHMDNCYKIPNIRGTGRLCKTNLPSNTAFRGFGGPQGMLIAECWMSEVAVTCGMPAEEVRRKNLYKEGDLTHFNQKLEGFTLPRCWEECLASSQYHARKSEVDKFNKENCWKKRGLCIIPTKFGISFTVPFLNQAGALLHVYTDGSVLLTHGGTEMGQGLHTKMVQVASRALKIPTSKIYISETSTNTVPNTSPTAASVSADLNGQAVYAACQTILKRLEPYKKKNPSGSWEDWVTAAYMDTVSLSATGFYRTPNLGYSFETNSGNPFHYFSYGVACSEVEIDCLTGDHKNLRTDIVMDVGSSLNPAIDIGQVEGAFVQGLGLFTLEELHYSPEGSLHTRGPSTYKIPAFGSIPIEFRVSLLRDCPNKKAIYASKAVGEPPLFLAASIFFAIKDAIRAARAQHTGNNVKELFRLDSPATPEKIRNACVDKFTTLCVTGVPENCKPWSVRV

## O=c1cc(-c2ccccc2)oc2cc(O)cc(O)c12 [Molecule M1, 5,7-dihydroxyflavone]
[1]
  IC50: > 50 µM
15-lipoxygenase
  Anti 15-Lipoxygenase %: ineffective
IGROV-1 cells
  Cytotoxic activity against IGROV-1 (in words): most active
Xanthine oxidase (XOD) [2]
  IC50: > 100 µM

## COc1ccc(-c2oc3c(CC=C(C)C)c(O[C@@H]4O[C@H](CO)[C@@H](O)[C@H](O)[C@H]4O)cc(O)c3c(=O)c2O[C@@H]2O[C@@H](C)[C@H](O)[C@@H](O)[C@H]2O)cc1 [Molecule M2, Icariin]
[3]; tested at 147.78 µM ref 17
  DPPH assay antioxidant activity: 3.8 ± 1.0%
[1]
  IC50: 20.1 ± 0.1 µM
IGROV-1 cells
  IC50: > 100 µM
  Cytotoxic activity against IGROV-1 (in words): not active
Xanthine oxidase (XOD) [2]; read-out: Anti XOD IC50
  IC50: > 100 µM
[4]
  ABTS assay antioxidant activity: 14.6 ± 0.1%

## O=c1cc(-c2ccccc2)oc2ccc(O)cc12 [Molecule M3, 6-hydroxyflavone]
[5]
  porcine pancreas α-amylase inhibition: 4.5 ± 1.1%
[1]
  IC50: 24 ± 0.1 µM
15-lipoxygenase
  Anti 15-Lipoxygenase %: ineffective
IGROV-1 cells
  Cytotoxic activity against IGROV-1 (in words): most active
Xanthine oxidase (XOD) [2]; read-out: Anti XOD IC50
  IC50: > 100 µM

## O=c1cc(-c2ccccc2)oc2cccc(O)c12 [Molecule M4, 5-hydroxyflavone]
[5]
  porcine pancreas α-amylase inhibition: ineffective
[1]
  IC50: > 100 µM
  ABTS Assay %: 16.0 ± 1.5%
15-lipoxygenase
  Anti 15-Lipoxygenase %: ineffective
Xanthine oxidase (XOD) [2]
  IC50: > 100 µM

## O=c1cc(-c2ccccc2)oc2cc(O)ccc12 [Molecule M5, 7-hydroxyflavone]
[5]
  porcine pancreas α-amylase inhibition: 4.8 ± 3.6%
[1]
  IC50: > 100 µM
  ABTS Assay %: 5.9 ± 0.4%
15-lipoxygenase
  Anti 15-Lipoxygenase %: ineffective
IGROV-1 cells
  Cytotoxic activity against IGROV-1 (in words): most active
Xanthine oxidase (XOD) [2]; read-out: Anti XOD IC50
  IC50: > 100 µM

## O=c1cc(-c2ccccc2)oc2cc(O)c(O)c(O)c12 [Molecule M7, 5,6,7-trihydroxyflavone]
[5]
  porcine pancreas α-amylase inhibition: 13.2 ± 2.4%
[3]; previous study ref 16, read-out: DPPH assay IC50
  IC50: 21.2 µM
[1]
  IC50: 6.3 ± 0.1 µM
Xanthine oxidase (XOD) [2]; read-out: Anti XOD IC50
  IC50: > 100 µM
12-lipoxygenase
  IC50: 1 µM
Aβ1-40-induced dementia
  effect on Aβ1-40-induced dementia: perfected Aβ1-40-induced dementia in rats

## O=c1cc(-c2cc(O)cc(O)c2)oc2ccccc12 [Molecule M8, 3′,5′-dihydroxyflavone]
[1]
  IC50: 7.3 ± 0.1 µM
Xanthine oxidase (XOD) [6]
  Anti XOD %: 75.3 ± 1.6%
IGROV-1 cells
  Cytotoxic activity against IGROV-1 (in words): most active
Xanthine oxidase (XOD) [2]; read-out: Anti XOD IC50
  IC50: 2.3 ± 0.1 µM

## O=c1cc(-c2cccc(O)c2)oc2ccc3ccccc3c12 [Molecule M9, 3′-hydroxy-b-naphthoflavone]
[1]
  IC50: > 100 µM
IGROV-1 cells
  IC50: > 100 µM
  Cytotoxic activity against IGROV-1 (in words): not active
Xanthine oxidase (XOD) [2]; read-out: Anti XOD IC50
  IC50: > 100 µM

## O=c1cc(-c2cccc(O)c2)oc2cc(O)ccc12 [Molecule M13, 7,3′-dihydroxyflavone]
[1]
  IC50: 24.5 ± 0.1 µM
Xanthine oxidase (XOD) [6]
  Anti XOD %: 64.2 ± 1.2%
IGROV-1 cells
  Cytotoxic activity against IGROV-1 (in words): most active
Xanthine oxidase (XOD) [2]; read-out: Anti XOD IC50
  IC50: 0.9 ± 0.2 µM

## COc1cc(-c2cc(=O)c3ccc4c(O)cccc4c3o2)cc(OC)c1OC [Molecule M18, 7-hydroxy-3′,4′,5′-trimethoxy-α-naphthoflavone]
[1]
  IC50: > 50 µM
Xanthine oxidase (XOD) [6]
  Anti XOD %: 19.4 ± 1.0%
IGROV-1 cells
  IC50: > 100 µM
  Cytotoxic activity against IGROV-1 (in words): not active
Xanthine oxidase (XOD) [2]; read-out: Anti XOD IC50
  IC50: > 100 µM
